Experimental data as given in the NIST ThermoML archive (doi:10.1021/je049655w).

Test: xn = mol fraction of the nth substance listed
Conditions: 100.8 kPa, Liquid

CC(C)CC(C)(C)C [2,2,4-trimethylpentane] + CCC(C)=O
x2 = 0
Conditions | mass density [kg/m3] | viscosity [mPa·s]
298.15 K | 687.8 | 0.474
308.15 K | 679.5 | 0.426
318.15 K | 671 | 0.382

CCC(C)=O [butanone] + CC(C)CC(C)(C)C
Conditions | mass density, 298.15 K [kg/m3] | mass density, 308.15 K [kg/m3] | mass density, 318.15 K [kg/m3] | viscosity, 298.15 K [mPa·s] | viscosity, 308.15 K [mPa·s] | viscosity, 318.15 K [mPa·s]
x1 = 0.05 | 690.1 | 681.7 | 673.1 | 0.461 | 0.416 | 0.374
x1 = 0.1 | 692.7 | 684.2 | 675.4 | 0.451 | 0.408 | 0.367
x1 = 0.15 | 695.6 | 687 | 678.2 | 0.443 | 0.4 | 0.36
x1 = 0.2 | 698.7 | 690.1 | 681.1 | 0.436 | 0.394 | 0.354
x1 = 0.25 | 702.2 | 693.4 | 684.3 | 0.429 | 0.388 | 0.349
x1 = 0.3 | 705.9 | 697 | 687.8 | 0.423 | 0.382 | 0.344
x1 = 0.35 | 709.9 | 700.9 | 691.6 | 0.417 | 0.377 | 0.339
x1 = 0.4 | 714.1 | 705.1 | 695.7 | 0.412 | 0.372 | 0.335
x1 = 0.45 | 718.7 | 709.5 | 700.1 | 0.407 | 0.368 | 0.331
x1 = 0.5 | 723.6 | 714.3 | 704.8 | 0.402 | 0.363 | 0.328
x1 = 0.55 | 728.8 | 719.4 | 709.8 | 0.398 | 0.36 | 0.325
x1 = 0.6 | 734.5 | 724.9 | 715.3 | 0.394 | 0.356 | 0.322
x1 = 0.65 | 740.6 | 731 | 721.2 | 0.39 | 0.353 | 0.32
x1 = 0.7 | 747.2 | 737.4 | 727.5 | 0.387 | 0.35 | 0.317
x1 = 0.75 | 754.2 | 744.3 | 734.3 | 0.384 | 0.347 | 0.315
x1 = 0.8 | 761.9 | 751.9 | 741.7 | 0.381 | 0.345 | 0.313
x1 = 0.85 | 770.4 | 760.2 | 749.9 | 0.379 | 0.343 | 0.311
x1 = 0.9 | 779.3 | 769 | 758.6 | 0.377 | 0.342 | 0.309
x1 = 0.95 | 789.2 | 778.8 | 768.2 | 0.377 | 0.341 | 0.308
x1 = 1 | 799.7 | 789.2 | 778.4 | 0.378 | 0.341 | 0.307

CCO [ethanol] + CC(C)CC(C)(C)C
x1 = 1
Conditions | mass density [kg/m3] | viscosity [mPa·s]
298.15 K | 785.1 | 1.088
308.15 K | 776.5 | 0.904
318.15 K | 767.7 | 0.763

CCO [ethanol] + CCC(C)=O
x1 = 1
Conditions | mass density [kg/m3] | viscosity [mPa·s]
298.15 K | 785.1 | 1.088
308.15 K | 776.5 | 0.904
318.15 K | 767.7 | 0.763

CCC(C)=O [butanone] + CCO
Conditions | mass density, 298.15 K [kg/m3] | mass density, 308.15 K [kg/m3] | mass density, 318.15 K [kg/m3] | viscosity, 298.15 K [mPa·s] | viscosity, 308.15 K [mPa·s] | viscosity, 318.15 K [mPa·s]
x2 = 0 | 799.7 | 789.2 | 778.4 | 0.378 | 0.341 | 0.307
x2 = 0.05 | 799.3 | 788.8 | 778 | 0.38 | 0.345 | 0.313
x2 = 0.1 | 798.9 | 788.3 | 777.6 | 0.386 | 0.349 | 0.316
x2 = 0.15 | 798.4 | 787.9 | 777.2 | 0.393 | 0.353 | 0.32
x2 = 0.2 | 797.9 | 787.4 | 776.8 | 0.4 | 0.359 | 0.324
x2 = 0.25 | 797.4 | 787 | 776.4 | 0.409 | 0.366 | 0.33
x2 = 0.3 | 796.9 | 786.5 | 776 | 0.42 | 0.376 | 0.337
x2 = 0.35 | 796.4 | 786.1 | 775.6 | 0.431 | 0.387 | 0.345
x2 = 0.4 | 795.8 | 785.6 | 775.2 | 0.446 | 0.397 | 0.355
x2 = 0.45 | 795.2 | 785.1 | 774.7 | 0.469 | 0.412 | 0.365
x2 = 0.5 | 794.6 | 784.6 | 774.3 | 0.49 | 0.426 | 0.381
x2 = 0.55 | 794 | 784 | 773.8 | 0.512 | 0.443 | 0.398
x2 = 0.6 | 793.3 | 783.4 | 773.3 | 0.539 | 0.467 | 0.412
x2 = 0.65 | 792.6 | 782.8 | 772.8 | 0.576 | 0.493 | 0.434
x2 = 0.7 | 791.8 | 782.1 | 772.2 | 0.618 | 0.526 | 0.456
x2 = 0.75 | 790.9 | 781.4 | 771.6 | 0.673 | 0.56 | 0.482
x2 = 0.8 | 790 | 780.6 | 771 | 0.734 | 0.601 | 0.519
x2 = 0.85 | 788.9 | 779.7 | 770.3 | 0.799 | 0.654 | 0.56
x2 = 0.9 | 787.8 | 778.7 | 769.5 | 0.869 | 0.722 | 0.613
x2 = 0.95 | 786.6 | 777.7 | 768.6 | 0.961 | 0.803 | 0.676
